One assay addresses T1, M5 muscarinic receptor (Homo sapiens, UniProt P08912).
T1 construct: membranes
T1 sequence (P08912 1-532): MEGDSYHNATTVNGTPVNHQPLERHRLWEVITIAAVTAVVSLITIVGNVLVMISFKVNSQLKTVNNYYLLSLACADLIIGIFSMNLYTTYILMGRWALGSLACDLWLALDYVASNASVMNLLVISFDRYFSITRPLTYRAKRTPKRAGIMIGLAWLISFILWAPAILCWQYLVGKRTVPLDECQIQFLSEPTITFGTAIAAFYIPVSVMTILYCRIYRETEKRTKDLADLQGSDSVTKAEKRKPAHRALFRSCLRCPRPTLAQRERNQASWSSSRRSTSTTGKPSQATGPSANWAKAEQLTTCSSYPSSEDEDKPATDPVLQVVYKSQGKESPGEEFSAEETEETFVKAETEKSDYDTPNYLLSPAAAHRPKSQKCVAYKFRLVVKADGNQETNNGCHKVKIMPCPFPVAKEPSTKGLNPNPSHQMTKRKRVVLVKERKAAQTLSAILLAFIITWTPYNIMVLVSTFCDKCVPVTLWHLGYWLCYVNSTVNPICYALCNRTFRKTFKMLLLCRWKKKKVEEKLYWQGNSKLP
Put plainly: [3H]NMS competition binding, membranes from CHO cells expressing M5. The method, then:
Cells were cultured as described previously by Randakova et al.[33]. […] The medium was supplemented with 5 mM butyrate for the last 24 h of culture to increase receptor expression. Cells were washed with (phosphate-buffered saline (PBS), mechanically harvested by scraper and centrifugated 1000 × g for 5 min. Cell pellets were kept at − 80 °C.
Membranes were prepared as described previously by Randakova et al.[33]. Cells harvested from twenty 100 mm petri dishes (CHO) or 30 ml of cell suspension (Sf9) were suspended in 20 ml of ice-cold incubation medium (100 mM NaCl, 20 mM Na-HEPES, 10 mM MgCl2, pH 7.4) supplemented with 10 mM EDTA and homogenized on ice by two 30‐s strokes using a Polytron homogenizer (Ultra-Turrax; Janke & Kunkel GmbH & Co. KG, IKA-Labortechnik, Staufen, Germany) with a 30 s pause between strokes. Cell homogenates were centrifuged for 5 min at 1000×g to remove whole cells and cell nuclei. The resulting supernatants were centrifuged for 30 min at 30,000×g. Pellets were suspended in a fresh incubation medium, incubated on ice for 30 min, and centrifuged again. The resulting membrane pellets were kept at − 80 °C until assayed within 10 weeks.
Non-specific binding was determined in the presence of 10 μM unlabelled atropine. Incubations were terminated by filtration through filtration plates multiscreen 96 well Harvest (Merck Millipore) using a Brandel cell harvester (Brandel, Gaithersburg, MD, USA). Filtration plates were dried in a microwave oven, and then 40 μl of liquid scintillator Rotiscint eco plus (Roth) was added. The filtration plates were counted in the Microbeta scintillation counter (PerkinElmer). […] The inhibition constant KI was calculated according to Eq. (2).
Inhibition constants KI were calculated according to Eq. (2).2 KI=IC50/1+D/KD where IC50 is calculated according to Eq.

The next assay has as its target T2, M1 receptor (Homo sapiens, UniProt P11229).
T2 sequence (P11229 1-460): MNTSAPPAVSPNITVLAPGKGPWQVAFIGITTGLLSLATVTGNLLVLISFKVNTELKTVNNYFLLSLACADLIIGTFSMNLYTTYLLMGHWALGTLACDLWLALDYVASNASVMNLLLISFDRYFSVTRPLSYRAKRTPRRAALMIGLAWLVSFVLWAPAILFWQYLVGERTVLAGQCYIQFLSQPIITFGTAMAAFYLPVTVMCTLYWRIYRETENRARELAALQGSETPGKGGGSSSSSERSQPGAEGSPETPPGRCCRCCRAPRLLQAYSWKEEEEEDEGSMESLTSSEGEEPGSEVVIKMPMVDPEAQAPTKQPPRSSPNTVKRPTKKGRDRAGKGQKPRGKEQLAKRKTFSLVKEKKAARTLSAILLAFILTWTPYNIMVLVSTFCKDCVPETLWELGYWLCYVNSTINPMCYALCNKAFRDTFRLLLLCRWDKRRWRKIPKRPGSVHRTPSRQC
Description: BRET real-time monitoring of Gq/11 activation via M1 in HEK293T/17 cells. Also noted: expressed in transfected cells; host or cells: HEK293T/17 cells, transient transfection. It counts as cell-based. The settings on record: for Activation of Gαq/11 types: saturating concentration (100 μM; 1 mM for JB-12-2, JB-13-1); for Activation magnitude at G11, % of CBC / Activation magnitude at G15, % of CBC / Activation magnitude at Gq, % of CBC / Activation magnitude at Gα14, % of CBC: 100 μM. The method, then:
HE/K293T17 cells were obtained from The Global Bioresource Center ATCC (Manassas, VA, USA). Cells were grown in 100 mm petri dishes in Dulbecco’s modified Eagle’s medium (DMEM) supplemented with 10% fetal bovine serum (FBS), MEM non-essential amino acids, 1 mM sodium pyruvate, and antibiotics (100 units/ml penicillin and 100 μg/ml streptomycin) at 37 °C in a humidified incubator containing 5% CO2[41]. Transfection was performed according to Masuho et al.[41]. […] Gα14 subunit was co-transfected with Ric-8A chaperone (0.21 μg). Cells were cotransfected with a pcDNA3.1 construct encoding the catalytic subunit of pertussis toxin (PTX-S1) (0.21 μg) and constructs encoding Gα15, Gα14, Gα11, Gαq to ensure that the small BRET signals were not contaminated by the possible recruitment of endogenous Gαi/o proteins. The empty vector pcDNA3.1 was used to normalize the amount of DNA in each transfection.
To examine the activation of G-protein signalling in live cells, agonist-dependent cellular measurements of BRET between Venus-Gβ1γ2 and masGRK3ct-Nluc were performed as described by Masuho et al.[41]. […] Cells were harvested by centrifugation at 500×g for 5 min and were resuspended in BRET buffer. About 50,000 to 100,000 cells per well were distributed in 96-well flat-bottomed white microplates (Greiner Bio-One) in a volume of 25 µl. […] BRET measurements were made with a microplate reader (POLARstar Omega, BMG Labtech) equipped with two emission photomultiplier tubes, which enabled the detection of two emissions simultaneously with the highest possible resolution of 20 ms per data point. All measurements were performed at room temperature. […] The average baseline value (basal BRET ratio) recorded before stimulation of cells with an agonist was subtracted from the experimental BRET signal values to obtain the ΔBRET ratio.

Consider 5 compounds from PMC11053168, “Agonist-selective activation of individual G-proteins by muscarinic receptors” (Scientific Reports, 2024).

Read-outs that look alike come from different tables or passages of the source.

As usually defined, the Ki is a dissociation constant, usually derived from enzyme kinetics or from competition with a known ligand. Turning to `c1csc(C[N+]23CCC(CC2)CC3)c1` [JB-8A], the affinity on M5 muscarinic receptor, expressed as Ki, was 9.33 µM. The “Activation of Gαq/11 types” value at M1 receptor is given as “did not activate any Gαq/11 type”.
In the same order, the values of `C[N+]1(Cc2cccs2)CCOCC1` [JB-12-2] are 112 µM and “activated all Gαq/11 types”.
In the case of `COC(=O)C1=CCCN(Cc2cccs2)C1` [JB-13-1], on M5 muscarinic receptor (M5, competition with [3H]NMS, mean ± SD, three experiments, read-out: Binding affinity, negative logarithm of Ki (converted)), the Ki was 468 µM. Further, the “Activation of Gαq/11 types” value on M1 receptor is listed as “did not activate any Gαq/11 type”.
For the compound `C[N+]1(Cc2cccs2)CC=CCC1` (centres unmarked) [JR-6, 1-methyl-1-[(thiophen-2-yl)methyl]-1,2,3,6-tetra hydropyridin-1-ium], at M1 receptor, the “Activation magnitude at G11, % of CBC” value is “approximately 50%”; the “Activation magnitude at G15, % of CBC” value is given as “approximately 50%”; the “Activation magnitude at Gq, % of CBC” value was “approximately 50%”; the “Activation magnitude at Gα14, % of CBC” value is listed as “approx. 10%”.
As for `C[N+]1(Cc2ccc(Cl)s2)CC=CCC1` (centres unmarked) [PN-152, 1-[(5-chlorothiophen-2-yl)methyl]-1-methyl-1,2,3,6-tetrahydropyridin-1-ium], at M1 receptor, the “Activation magnitude at G11, % of CBC” value is recorded as “approx. 30%”; the “Activation magnitude at G15, % of CBC” value was “approx. 30%”; the “Activation magnitude at Gq, % of CBC” value is “approx. 30%”; the “Activation magnitude at Gα14, % of CBC” value is recorded as “did not activate”.
